From patent US9573954B2, “Pyrazolopyrimidine compounds” (University Health Network, priority 2012, dated 2017)

What was measured:
[1] = tested on: Colon 12 tumor initiating cells; experiment: Tumor-initiating cell growth inhibition, Alamar Blue assay, colon TICs; type: cell-based; details: 216 h; Colon 12 TICs, 9 days; read-out: Tumor Initiating Cell GI50 Range Colon 12
Description: (§1) Non-tissue or tissue cultured treated T-75 flask and 96-well plates were purchased from VWR. Vitamin B-27 supplement, MEM NEAA (minimum essential medium non essential amino acids), sodium pyruvate, L-glutamine, N2 supplement, penicillin-streptomycin and fungizone/amphotericin B were obtained from Invitrogen. Lipid mixture, heparin and EGF were purchased from Sigma; bFGF from BD Biosciences. Tumor Initiating Cells (TICs) from colon were routinely maintained using non-tissue cultured treated T-75 flasks in DMEM:F12 medium containing 0.2XB-27 supplement, 4 ug/ml heparin, 1×MEM NEAA, 1×sodium pyruvate, 1 mM glutamine, 10 pg/ul bFGF, 20 pg/ul EGF, 1× N2 supplement, lipid mixture, penicillin-streptomycin and fungizone/amphotericin B. Ovarian TICs were routinely maintained using tissue cultured treated T-75 flasks in DMEM:F12 medium containing IXB-27 supplement, 4 ug/ml heparin, 20 pg/ul bFGF, 20 pg/ul EGF and penicillin-streptomycin.
(§2) Compounds described herein were dissolved in DMSO and further diluted in cell culture medium for GI50 determination. Colon TICs were trypsinized and seeded into non-tissue cultured treated 96-well plates with 4,000 cells/well. After 24 h, compound was added into the cell culture at different concentrations, and the final concentration of DMSO was adjusted to 0.1%. Cells were then cultured at 37° C. for 9 days. Ovarian TICs were trypsinized and seeded into tissue cultured treated 96-well plates with 1,000 cells/well. After 24 h, compound was added into the cell culture at different concentrations, and the final concentration of DMSO was adjusted to 0.1%. Cells were then cultured at 37° C. for 6 days. Cell viability was assessed by Alamar Blue assay: 10 ul of Alamar Blue was added into each well. After 4 hours incubation at 37° C., fluorescence was recorded at excitation 544 and emission 590. GI50 (Growth inhibition) was calculated using GraphPad Prism 4.0 software.
(§3) In Table 1 below, GI50 value ranges for compound examples against TICs (Colon 12 and Ovarian 2393A) are given.

[2] = tested on: breast cancer cells (MDA-MB-468); experiment: Cancer cell line growth inhibition, Sulforhodamine B assay, MDA-MB-468; type: cell-based; details: Homo sapiens, MDA-MB-468, MDA-MB-468 breast cancer cell line; read-out: Cancer Cell Line GI50 Range MDA-MB-468
Method in brief: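 Sulforhodamine B staining (TCA-fixed, read at 570 nm) estimates cell mass after 5-day compound treatment of MDA-MB-468 cells, final concentrations 10 nM to 50 μM in 10% FBS DMEM. GI50 derived from growth inhibition versus DMSO controls.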

[3] = tested on: ovarian cancer cells (OVCAR-3); experiment: Cancer cell line growth inhibition, Sulforhodamine B assay, OVCAR-3; type: cell-based; details: Homo sapiens, OVCAR-3, OVCAR-3 ovarian cancer cell line; read-out: Cancer Cell Line GI50 Range OVCAR-3
Method in brief: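 OVCAR-3 cells were seeded 24 h before compound addition, then exposed for 5 days to final concentrations of 10 nM to 50 μM in DMEM with 10% FBS. Growth was measured by TCA fixation and sulforhodamine B staining with absorbance at 570 nm. Inhibition was relative to DMSO-only cells, and GI50 came from curve fitting.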

human TTK = molecular target: T1, human TTK (Homo sapiens, UniProt P33981); experiment: TTK inhibition assay (indirect ELISA); type: biochemical; details: 100 μM ATP; read-out: TTK IC50 Range
T1 construct: Active TTK was purchased from Invitrogen as an amino terminal GST fusion of full length human TTK; purchased Invitrogen
T1 sequence (P33981 1-857): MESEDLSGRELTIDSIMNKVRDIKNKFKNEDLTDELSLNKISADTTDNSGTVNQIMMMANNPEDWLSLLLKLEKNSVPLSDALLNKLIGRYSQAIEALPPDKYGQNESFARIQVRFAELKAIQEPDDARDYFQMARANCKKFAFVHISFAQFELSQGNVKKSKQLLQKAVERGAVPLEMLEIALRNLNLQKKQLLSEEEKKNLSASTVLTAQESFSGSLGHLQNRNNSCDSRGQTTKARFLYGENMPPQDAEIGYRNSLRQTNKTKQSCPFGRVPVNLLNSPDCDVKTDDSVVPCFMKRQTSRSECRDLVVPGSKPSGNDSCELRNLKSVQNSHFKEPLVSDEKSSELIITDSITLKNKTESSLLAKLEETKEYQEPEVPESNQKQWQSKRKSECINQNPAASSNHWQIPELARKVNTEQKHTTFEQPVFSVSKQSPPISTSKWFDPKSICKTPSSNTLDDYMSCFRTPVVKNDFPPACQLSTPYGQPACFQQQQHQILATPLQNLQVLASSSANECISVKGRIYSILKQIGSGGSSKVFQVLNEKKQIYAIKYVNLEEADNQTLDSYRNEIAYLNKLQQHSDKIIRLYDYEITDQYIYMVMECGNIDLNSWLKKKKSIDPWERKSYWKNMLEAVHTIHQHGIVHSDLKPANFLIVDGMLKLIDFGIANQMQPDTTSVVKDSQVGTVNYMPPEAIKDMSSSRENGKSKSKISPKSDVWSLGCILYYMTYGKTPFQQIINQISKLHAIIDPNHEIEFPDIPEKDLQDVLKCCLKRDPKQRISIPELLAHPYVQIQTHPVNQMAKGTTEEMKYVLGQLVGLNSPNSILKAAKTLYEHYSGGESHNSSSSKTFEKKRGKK
Method in brief: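 Activity detected by indirect ELISA after compounds sat with full-length GST-TTK for 5 min prior to starting the reaction with ATP. IC50 came from a four-parameter logistic curve of % inhibition, calculated against background and uninhibited control wells.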

[4] = tested on: colon cancer cells (HCT116); experiment: Cancer cell line growth inhibition, Sulforhodamine B assay, HCT116; type: cell-based; details: Homo sapiens, HCT-116, HCT116 colon cancer cell line; read-out: Cancer Cell Line GI50 Range HCT116
Method in brief: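 GI50 is calculated from growth inhibition relative to DMSO controls, using TCA-fixed, SRB-stained protein mass read at 570 nm. Compound, 10 nM–50 μM final in 10% FBS DMEM, was applied for 5 days to HCT116 cells that had been plated 24 h before at 1000–4000/well.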

[5] = tested on: Ovarian 2393A tumor initiating cells; experiment: Tumor-initiating cell growth inhibition, Alamar Blue assay, ovarian TICs; type: cell-based; details: 144 h; Ovarian 2393A TICs, 6 days; read-out: Tumor Initiating Cell GI50 Range Ovarian 2393A
Description: as §1, §2, §3

SMILES | GI50 [1] [nM] | GI50 [2] [nM] | GI50 [3] [nM] | IC50 (human TTK) [nM] | GI50 [4] [nM] | GI50 [5] [nM]
Cc1cc(-c2cnn3c(NCC4CCOCC4)cc(OC4CCN(C5COC5)C4)nc23)ccc1C(=O)NC1CC1 (stereo not drawn) [Example C116] | 100 to 500 | 100 to 500 | 100 to 500 | < 100 | ≤ 100 | 100 to 500
Cc1cc(-c2cnn3c(NCC4CCOCC4)cc(N[C@H]4CCN(C5COC5)C4)nc23)ccc1C(=O)NC1CC1 [Example C120] | > 500 | 100 to 500 | > 500 | < 100 | 100 to 500 | > 500
Cc1cc(-c2cnn3c(NC[C@H]4C[C@H](O)C4)cc(NC4CCOCC4)nc23)ccc1C(=O)NC1CC1 [Example C145] | 100 to 500 | 100 to 500 | 100 to 500 | < 100 | 100 to 500 | 100 to 500
Cc1cc(-c2cnn3c(NCC4(F)CCNCC4)cc(Oc4cccc(F)c4)nc23)ccc1C(=O)NC1CC1 [Example C146] | ≤ 100 | ≤ 100 | 100 to 500 | < 100 | ≤ 100 | ≤ 100
Cc1cc(-c2cnn3c(NCC4CCOCC4)cc(-c4ccncc4)nc23)ccc1C(=O)NC1CC1 [Example C150] | 100 to 500 | 100 to 500 | 100 to 500 | < 100 | 100 to 500 | 100 to 500
Cc1cc(-c2cnn3c(NCC4CCOCC4)cc(N[C@H](CO)C4CCCC4)nc23)ccc1C(=O)NC1CC1 [Example C165] | ≤ 100 | 100 to 500 | 100 to 500 | < 100 | ≤ 100 | 100 to 500
Cc1cc(-c2cnn3c(NC[C@H]4CC[C@H](O)CC4)cc(Oc4cccnc4)nc23)ccc1C(=O)NC1CC1 [Example C177] | ≤ 100 | 100 to 500 | 100 to 500 | < 100 | 100 to 500 | ≤ 100

Continued, values first:

GI50 [1] [nM] | GI50 [2] [nM] | GI50 [3] [nM] | IC50 (human TTK) [nM] | GI50 [4] [nM] | GI50 [5] [nM] | SMILES
≤ 100 | ≤ 100 | ≤ 100 | < 100 | ≤ 100 | 100 to 500 | Cc1cc(-c2cnn3c(NCC4CCOCC4)cc(NC4(CO)CCCC4)nc23)ccc1C(=O)NC1CC1 [Example C45]
≤ 100 | ≤ 100 | 100 to 500 | < 100 | ≤ 100 | ≤ 100 | Cc1cc(-c2cnn3c(NCC4CCN(C)CC4)cc(Oc4cccc(F)c4)nc23)ccc1C(=O)NC1CC1 [Example C46, N-cyclopropyl-4-(5-(3-fluorophenoxy)-7-(((1-methylpiperidin-4-yl)methyl)amino)pyrazolo[1,5-a]pyrimidin-3-yl)-2-methylbenzamide]
100 to 500 | 100 to 500 | 100 to 500 | < 100 | 100 to 500 | 100 to 500 | Cc1cc(-c2cnn3c(NCC4CCOCC4)cc(N[C@H]4CC[C@H](O)CC4)nc23)ccc1C(=O)NC1CC1 [Example C48]
≤ 100 | 100 to 500 | 100 to 500 | < 100 | 100 to 500 | ≤ 100 | Cc1cc(-c2cnn3c(NCC4COC4)cc(Oc4cccnc4)nc23)ccc1C(=O)NC1CC1 [Example C100]
100 to 500 | 100 to 500 | 100 to 500 | < 100 | ≤ 100 | 100 to 500 | Cc1cc(-c2cnn3c(NCC4CCOCC4)cc(N[C@@H]4CCCC[C@@H]4O)nc23)ccc1C(=O)NC1CC1 [Example C118]
≤ 100 | 100 to 500 | 100 to 500 | < 100 | ≤ 100 | ≤ 100 | Cc1cc(-c2cnn3c(NCC4CCOCC4)cc(N[C@H](CO)CC(C)C)nc23)ccc1C(=O)NC1CC1 [Example C130]
≤ 100 | ≤ 100 | ≤ 100 | < 100 | ≤ 100 | ≤ 100 | Cc1cc(-c2cnn3c(NC[C@H]4C[C@H](O)C4)cc(Oc4cccnc4)nc23)ccc1C(=O)NC1CC1 [Example C144]
≤ 100 | ≤ 100 | ≤ 100 | < 100 | ≤ 100 | ≤ 100 | Cc1cc(-c2cnn3c(NC[C@H]4CC[C@@H](O)CC4)cc(Oc4cccnc4)nc23)ccc1C(=O)NC1CC1 [Example C176]
≤ 100 | ≤ 100 | ≤ 100 | < 100 | ≤ 100 | ≤ 100 | Cc1cc(-c2cnn3c(NCCN4CCC(O)CC4)cc(Oc4cccc(F)c4)nc23)ccc1C(=O)NC1CC1 [Example C182]
≤ 100 | ≤ 100 | 100 to 500 | < 100 | ≤ 100 | ≤ 100 | Cc1cc(-c2cnn3c(NCCN(C)C)cc(Oc4cccc(F)c4)nc23)ccc1C(=O)NC1CC1 [Example C187]
